# Laboratory results taken from paper PMC6891762, “Novel Isoxazolidine and γ-Lactam Analogues of Homonucleosides” (Molecules, 2019).
# Legend:
# [1] = system: hTERT RPE-1 normal retina (non-cancerous) cells; assay: Cytostatic activity, normal retina cells; format: cell-based; settings: hTERT-RPE1; concentration causing 50% decrease in cell proliferation
# Description: (§1) The 50% cytostatic inhibitory concentration (IC50) causing a 50% decrease in cell proliferation was determined for all isolated isoxazolidines 14 and γ-lactams 15 toward nine cancerous cell lines (Capan-1 (pancreatic adenocarcinoma), Hap1 (chronic myeloid leukemia), HCT-116 (colorectal carcinoma), NCI-H460 (lung carcinoma), DND-41 (acute lymphoblastic leukemia), HL-60 (acute myeloid leukemia), K-562 (chronic myeloid leukemia), MM.1S (multiple myeloma) and Z-138 (non-Hodgkin lymphoma)) and normal retina (non-cancerous) cells (hTERT RPE-1). Docetaxel, etoposide and stauroporine were used as the reference compounds.
# (§2) All assays were performed in 96-well microtiter plates. To each well was added (5−7.5) × 10^4 tumor cells and a given amount of the test compound. The cells were allowed to proliferate at 37 °C in a humidified, CO2-controlled atmosphere. At the end of the incubation period, the cells were counted in a Coulter counter. The IC50 (50% inhibitory concentration) was defined as the concentration of the compound that inhibited cell proliferation by 50%.
# [2] = system: Capan-1 (pancreatic adenocarcinoma) cells; assay: Cytostatic activity, Capan-1; format: cell-based; settings: Homo sapiens, CAPAN-1, concentration causing 50% decrease in cell proliferation
# Description: as §1, with “RPE-1).” for “RPE-1). Docetaxel, etoposide and stauroporine were used as the reference compounds.”
# as §2, with “counter.” for “counter. The IC50 (50% inhibitory concentration) was defined as the concentration of the compound that inhibited cell proliferation by 50%.”
# [3] = system: Hap1 (chronic myeloid leukemia) cells; assay: Cytostatic activity, Hap1; format: cell-based; settings: Homo sapiens, HAP1; concentration causing 50% decrease in cell proliferation
# Description: as §1, §2
# [4] = system: HCT-116 (colorectal carcinoma) cells; assay: Cytostatic activity, HCT-116; format: cell-based; settings: Homo sapiens, HCT-116; concentration causing 50% decrease in cell proliferation
# Description: as §1, §2
# [5] = system: NCI-H460 (lung carcinoma) cells; assay: Cytostatic activity, NCI-H460; format: cell-based; settings: Homo sapiens, NCI-H460; concentration causing 50% decrease in cell proliferation
# Description: as §1, §2
# [6] = system: reverse transcriptase activity of (AMV) and human immunodeficiency virus (HIV); settings: ref [34],[35],[36],[37],[38]; cited from earlier work
# [7] = set-up: method as in PMID 12904074, PMID 20394405, PMID 15743182, PMID 17580846, PMID 17967914; settings: ref [34],[35],[36],[37],[38]; read-out: 50% cytotoxic concentration (CC50); cited from earlier work
# herpes simplex virus = settings: ref [19],[20],[21]; cited from earlier work
# vaccinia virus = settings: ref [19],[20],[21]; cited from earlier work
# [8] = system: influenza type virus AH1N1; set-up: method as in PMID 23225323; settings: ref [22]; cited from earlier work
# [9] = system: viral uracil-DNA glycosylase (UDG); set-up: method as in PMID 11084051; settings: ref [23]; cited from earlier work
# human enzymes (UDG) = system: human enzymes (UDG); set-up: method as in PMID 11084051; settings: ref [23]; cited from earlier work
Structure (SMILES),IC50 [1] [µM],IC50 [2] [µM],IC50 [3] [µM],IC50 [4] [µM],IC50 [5] [µM],also measured
"CN1C(=O)[C@@H](O)C[C@@H]1Cn1cnc2c(=O)n(C)c(=O)n(C)c21 (relative stereo) [trans-15h, trans-9-[(4-Hydroxy-1-methyl-5-oxopyrrolidin-2-yl)methyl]-1,3-dimethyl-3,9-dihydro-1H-purine-2,6-dione]",> 100,47.2,> 100,45.7,49.8,
"CN1C(=O)[C@@H](O)C[C@@H]1Cn1cnc2c(N)ncnc21 (relative stereo) [trans-15i, trans-5-[(6-Amino-9H-purin-9-yl)methyl]-3-hydroxy-1-methylpyrrolidin-2-one]",> 100,53.7,47.8,65.7,54.7,
"Cc1cn([C@H]2C[C@H](N=[N+]=[N-])[C@@H](CO)O2)c(=O)[nH]c1=O [AZT, azidothymidine]",,,,,,level of inhibition of reverse transcriptase activity [6]: 10 nM; CC50 [7]: 12.1 µM
Nc1ncnc2c1ncn2C[C@H]1C[C@H](O)[C@@H](CO)O1 [Compound 1],,,,,,minimum inhibitory concentration (MIC) (herpes simplex virus): 5 to 20 µg/mL; activity against vaccinia virus (vaccinia virus): active
Nc1nc2c(ncn2C[C@H]2C[C@H](O)[C@@H](CO)O2)c(=O)[nH]1 [Compound 2],,,,,,minimum inhibitory concentration (MIC) (herpes simplex virus): 5 to 20 µg/mL; activity against vaccinia virus (vaccinia virus): active
O=c1[nH]cnc2c1ncn2C[C@H]1C[C@H](O)[C@@H](CO)O1 [Compound 3],,,,,,IC50 [8]: 25.2 µg/mL
O=c1ccn(C[C@H]2C[C@H](O)[C@@H](CO)O2)c(=O)[nH]1 [Compound 4],,,,,,inhibition of viral uracil-DNA glycosylase (UDG) [9]: selective inhibitor; effect on the human enzymes (human enzymes (UDG)): only small effect
"CC(=O)O[C@@]12CO[C@@H]1C[C@H](O)[C@@]1(C)C(=O)[C@H](O)C3=C(C)[C@@H](OC(=O)[C@H](O)[C@@H](NC(=O)OC(C)(C)C)c4ccccc4)C[C@@](O)([C@@H](OC(=O)c4ccccc4)[C@H]21)C3(C)C [Docetaxel, reference compound]",25,0.95,1.19,0.25,0.89,
"COc1cc([C@@H]2c3cc4c(cc3[C@@H](O[C@@H]3O[C@@H]5CO[C@@H](C)O[C@H]5[C@H](O)[C@H]3O)[C@H]3COC(=O)[C@H]23)OCO4)cc(OC)c1O [Etoposide, reference compound]",0.23,0.15,0.04,1.03,1.35,
CN1C(=O)C(O)C[C@H]1Cn1cc(Br)c(=O)[nH]c1=O (stereo partly drawn) [cis-15d:trans-15d (53:47)],> 100,52.1,49.9,90,49.4,
"CN1C(=O)[C@@H](O)C[C@H]1CN1CCC(=O)NC1=O [cis-15g, cis-1-[(4-Hydroxy-1-methyl-5-oxopyrrolidin-2-yl)metyl]dihydropyrimidine-2,4(1H,3H)-dione]",> 100,41.3,56.3,> 100,42.7,
C[C@H](Cn1cnc2c(N)ncnc21)OCP(=O)(O)O [tenofovir],,,,,,level of inhibition of reverse transcriptase activity [6]: 1 nM
"CN1C(=O)[C@H](O)C[C@H]1CN1CCC(=O)NC1=O [trans-15g, trans-1-[(4-Hydroxy-1-methyl-5-oxopyrrolidin-2-yl)metyl]dihydropyrimidine-2,4(1H,3H)-dione]",> 100,46.7,49.4,> 100,69.3,
